According to patent US8293776B2, “Compositions and methods for treating inflammatory conditions of the bowel” (The Regents of the University of Michigan, priority 2008, dated 2012):
Entries after “also recorded” stand apart in the source; their conditions may differ.

Assays:
DSS colitis mice = assay: DSS colitis in mice, transanal treatment: body weight, fecal blood, histology, apoptosis; assay type: in vivo, C57BL/6 mice; details: for weight loss after 7 days (body weight change, FIG. 10B): 2.5% DSS, DCL and Losartan 10× (2,500 μg per dose), Candesartan 1× (250 μg per dose), mean±SD, placebo −15.81±6.59; for weight loss after 7 days (body weight change, FIG. 10B) / period before developing heme positive stools: transanal daily; for weight loss after 1 week (percentage change from baseline body weight) / period before developing heme positive stools: DSS; for weight loss after 1 week (percentage change from baseline body weight): transanal daily 7 days, placebo 15.8±6.5, P<0.001 versus placebo; for period before developing heme positive stools: placebo 5.64±1.22 days
Method: Animals. Specific pathogen-free male, 8-week old C57BL/6 mice (Taconic Farms Inc, Germantown, N.Y.) were maintained in a 12-h night rhythm at 23° C. and a relative humidity of 40-60%. Animals were fed standard rodent chow (LabDiet 5001Rodent Diet, PMI Nutrition International, LLC, Brentwood, Mo.) ad libitum. All experiments were approved by the University Committee on Use and Care of Animals at the University of Michigan. Experimental colitis design. Dextran sodium sulfate (DSS) was administered through drinking water for 7 days. Mice were randomly divided into 5 groups. In the DSS+placebo group, mice were given […] (total volume 0.25 ml) each day as a control. […] A[…]-A were given at 10-fold higher doses (losartan and […]: 10 mg/kg/day, candesartan: 1 mg/kg/day) than typically given systemically, and daily dosing was continued for 7 days. The study drugs were administered using a blunt needle via the […] route. Testing conducted during development of embodiments of the invention characterized that this amount of drug evenly coated the entire colon. A separate group of mice contained naive mice as an additional control group which received plain drinking water ad libitum, and received only water (0.25 ml, […]) without AT 1 aR-A. Harvesting. Mice were euthanized 7 days after DSS by carbon dioxide asphyxiation. […] Formalin preserved sections of distal colon were preserved in paraffin, sectioned transversely (5 μm) and stained with hematoxylin and eosin (H&E). The remaining colon was immediately processed for mucosal cell isolation. Assessment of colitis. The body weight of each mouse, stool characteristics, and intestinal bleeding were recorded. All animals were evaluated daily. Occult bleeding was tested using a hemoccult-card test (Beckman Coulter Inc, Fullerton, Calif.). Histologic grading of colitis was performed in a masked fashion (investigator blinded to the study group) according to previously described methods. (See, e.g., Spencer et al., et al. Dig Dis Sci 2007; 52:1060-70). Crypt shortening and distortion, together with inflammatory infiltrative thickening of the lamina propria, were assigned a score 0 (normal) through 4 (complete loss of crypt, ulceration, and severe thickening of lamina propria). The individual colitis score (0-4) from four quadrants of a left-sided colonic section were summed, such that the maximum score for a given section was 16, and the minimum score was 0. The mean of at least 2 sections were assessed in this manner for each mouse. Epithelial cell apoptosis assays. A terminal deoxynucleotidyl transferase biotin-dUTP nick end labeling (TUNEL) staining method was used to detect apoptosis, according to manufacturer's instructions (APOPTAG PLUS Peroxidase InSitu Apoptosis Detection Kit, Chemicon International Inc, Temecula, Calif.), with slight modification. Slides were incubated with only one-third of the recommended concentration of TdT enzyme, in order to avoid over-staining. Assessment of apoptosis consisted of separate counting of all TUNEL positive EC in all well oriented crypts and villi separately, and dividing the total number of counted apoptotic cells per number of analyzed crypts and villi, respectively. Apoptotic Index in the region of villi is expressed as the number of TUNEL positive cells per one villus. The addition of both crypt and villus apoptotic indices is expressed as the apoptotic index per crypt-villus complex (at 20× magnification).

[1] = Blood pressure and heart rate by tail-cuff in DSS mice after transanal treatment; assay type: in vivo, C57BL/6 mice; details: day 6 of DSS; for systolic blood pressure change (Delta BP, post − pre treatment): 1 hour before and 2 hr after treatment; for heart rate change: compared with naïve group
Excerpt: Measurements of Blood Pressure and Heart Rate. […] The system was designed to perform all functions automatically, including a programmable routine of cuff inflation and deflation, analysis and assignment of pulse rate and blood pressure, and recording of data electronically. To avoid variations in blood pressures, results were expressed using % Delta Blood Pressure (percent change in systolic pressures prior to and after treatment). Heart rate was also expressed as the change in rate before and after final dosing of […] drug/placebo.

[2] = mouse, in vivo
Excerpt: The scores were compared to the Naïve cohort.
Colonic mucosal and mesenteric blood flow measurements.

[3] = system: mucosal RNA of regulatory factors associated with inflammatory bowel disease; assay: Mucosal RNA of regulatory factors by RT-PCR, DSS mice, oral administration; assay type: in vivo; details: oral therapy, 7 days
Method: Experiments were conducted during development of embodiments of the invention in order to determine if AT1a antagonists or derivatives thereof could treat signs and symptoms of inflammatory bowel disease (e.g., inflammatory conditions of the intestine) when administered orally. Materials and methods were used as described in Example 3 with the following exceptions. AT1a antagonists or derivatives thereof were suspended in water. Each dose was given via the oral route using a blunt tipped needle by gavage directly into the stomach of each mouse. Dosing was daily in a single administration over a period of seven days. Realtime PCR was utilized to measure the abundance of mucosal RNA of several regulatory factors associated with inflammatory bowel disease. Factors studied were: TNF-α(tumor necrosis factor-alpha); interleukin-1b (IL-1b); IL-6; IL-10; transforming growth factor-beta (TGF-b) and Foxp3 (a T-cell regulatory factor). […] Realtime PCR was also utilized to measure the abundance of mucosal RNA of several additional regulatory factors associated with inflammatory bowel disease. IL-12p40, the regulatory factor for interleukin-12 (IL-12), and a key regulator for the up-regulation of interferon gamma (IFN-g); IFN-g; […]

[4] = in vivo; cited from earlier work
AT1a receptor [5] = details: cited from earlier work
AT1a receptor [6] = biological target: T1, AT1a receptor (Rattus norvegicus, UniProt P25095); assay: Ang II-dependent NF-κB-luciferase reporter assay in HepG2-AR cells; assay type: cell-based; details: Ang II 1 μM, 16 hours, Ang II alone = 100% induction, read-out: inhibition of NF-κB activation
T1 construct: expressed in transfected cells; host or cells: HepG2 (HepG2-AR), stably transfected
T1 sequence (P25095 1-359): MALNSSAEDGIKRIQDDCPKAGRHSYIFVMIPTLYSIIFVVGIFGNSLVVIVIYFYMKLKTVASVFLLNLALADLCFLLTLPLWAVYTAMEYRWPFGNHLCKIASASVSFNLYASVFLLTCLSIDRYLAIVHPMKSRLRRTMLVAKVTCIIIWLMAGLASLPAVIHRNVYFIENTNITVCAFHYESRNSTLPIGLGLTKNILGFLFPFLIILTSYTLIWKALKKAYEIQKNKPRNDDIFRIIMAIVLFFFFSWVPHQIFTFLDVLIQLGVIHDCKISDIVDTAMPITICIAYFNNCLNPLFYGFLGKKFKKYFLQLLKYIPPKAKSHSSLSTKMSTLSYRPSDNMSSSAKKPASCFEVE
Excerpt: In vitro assessment of AT1aR antagonism. […] This model makes use of the fact that Ang II-dependent stimulation of the AT1a receptor results in rapid activation of the NF-κB transcription factor. In this model, HepG2-AR cells, which stably express the AT1a receptor, were transiently transfected with an NF-κB-luciferase reporter plasmid and a control renilla plasmid (to correct for transfection efficiency). […] Cells were harvested and the luciferase/renilla ratio determined using the Promega Dual Luciferase Assay Kit. […] Loss of Ang II-dependent luciferase induction (measured by luminometer; LMax; Molecular Devices), due to the presence of receptor blockade was then calculated and used to indicate the extent of successful blockade of the AT1a receptor signaling pathway.
HepG2-AR cells, which stably express the AT1a receptor, were transiently transfected with an NF-κB-luciferase reporter plasmid and a control renilla plasmid (to correct for transfection efficiency). […] Cells were harvested and the luciferase/renilla ratio determined using a luciferase assay kit (e.g., Promega Dual Luciferase Assay Kit). […] The fold induction in the presence of varying doses of inhibitor was then converted to a percentage of this maximal induction.

AT1a receptor [7] = details: read-out: IC50 against the binding of Ang II to the AT1a receptor; cited from earlier work
Ang I-infused dogs = details: i.v., 1 mg/kg; cited from earlier work

| colonic blood flow at the mucosal level [2] | mesenteric blood flow [2] | inhibition at 60 µM (AT1a receptor [6]) | Compound | weight loss after 7 days (body weight change, FIG. 10B) (DSS colitis mice) | weight loss after 1 week (percentage change from baseline body weight) (DSS colitis mice) | period before developing heme positive stools (DSS colitis mice) | systolic blood pressure change (Delta BP, post − pre treatment) [1] | systolic blood pressure change (Delta BP, post − pre treatment) ([1]; listed as Candesartan) | systolic blood pressure change (Delta BP, post − pre treatment) ([1]; listed as candasartan) | heart rate change [1] | mucosal RNA of ADAM17 [3] | oral activity [4] | receptor blockade function compared with losartan (AT1a receptor [5]) | systolic blood pressure change (Delta BP, post − pre treatment) ([1]; listed as Losartan) | mucosal RNA of IL-12p40, IFN-g, IL-17, AT1aR and ADAM17 [3] | IC50 (AT1a receptor [7]) | time a ≧20 mmHg drop in mean arterial blood pressure (MABP) was maintained (Ang I-infused dogs) |
| --- | --- | --- | --- | --- | --- | --- | --- | --- | --- | --- | --- | --- | --- | --- | --- | --- | --- |
| 0.92±0.20 | 1.56±0.33 |  | CCOc1nc2cccc(C(=O)O)c2n1Cc1ccc(-c2ccccc2-c2nnn[nH]2)cc1 [candesartan] | −0.63±1.63% | 0.63±1.63% | 8.0 ± 0.0 days | decline in systolic BP | resulted in a decline | significant decline in blood pressure | declined significantly |  |  |  |  |  |  |  |
| failed to change | failed to change |  | CCCCc1ncc(CO)n1Cc1ccc(-c2ccccc2-c2nn[nH]n2)cc1 [DCL, des-chloro losartan] | −2.02±4.34% | 2.02±4.34% | 7.00 ± 1.4 days | did not significantly change BP; also recorded: no change in systolic blood pressure |  |  | not significantly different | marked decline in ADAM17 | lacks oral activity | nearly the same receptor blockade function as losartan |  |  |  |  |
| 0.88±0.32 | 1.97±0.58 | 90% | CCCCc1nc(Cl)c(CO)n1Cc1ccc(-c2ccccc2-c2nn[nH]n2)cc1 [losartan] | 0.07±2.50% | 0.07±2.50% | 6.8 ± 2.7 days | significant decline in blood pressure |  |  | not significantly different |  |  |  | decline in systolic BP; also recorded: resulted in a decline | marked decline in several of these factors | 50 nM | 30 min |
